# Reference: a melting point compilation (Tetko et al.; mined from patent text by program, amines drawn as free bases though some values may be those of a salt)
row,SMILES,melting point [°C]
1,CC(C)Cc1cc(S(=O)(=O)Cl)c(C(C)C)cc1Cl,90 to 94
2,CS(=O)(=O)N1CCC(Nc2ncc(C(=O)c3ccccc3)c(N)n2)CC1,249 to 250
3,CC(=O)N1OCC(=S)NC1c1ccccc1 (centres undefined),172 to 174
4,N#Cc1nn(-c2c(Cl)cc(OC(F)(F)F)cc2Cl)cc1C(Cl)=C(Cl)Br,143 to 144
5,Nc1nc(Nc2ccc(SC3(Cl)C=CC(C(F)(F)F)=CN3)cc2)sc1C(=O)c1ccccc1[N+](=O)[O-] (centres undefined),150 to 152
6,Cc1[nH]c(-c2ccccc2)c(N)c1C(=O)c1ccccc1,203 to 205
7,C=Cc1ccc(CN2CCNCCNCC2)cc1,56 to 59
8,C#CC1(O)CCC2C3C(C)CC4=CC(=O)CCC4C3CCC21CC (centres undefined),182 to 184
9,Cc1c(C(=O)OC(C)(C)C)oc2cccc(O)c12,158 to 159
10,COCCn1nnnc1-c1cc(-c2cc(C(F)(F)F)ccc2F)c(O)cc1O,90 to 94
11,COc1ccc2c(c1)-c1noc(O)c1CC2,135 to 138
12,O=C1OCc2cccc(CBr)c21,128 to 131
13,CCOC(=O)c1cnn(-c2ccc(Cl)cc2)c1,127 to 128
14,N#Cc1nn(-c2c(Cl)cc(C(F)(F)F)cc2Cl)c(N)c1-c1ccoc1Cl,153
15,Clc1ccc2c(c1)c(-c1ccccc1)c1n2CCNC1,163 to 164
16,O=[N+]([O-])c1ccc(-n2cncn2)cc1F,90 to 91
17,O=C(Nc1ccc(Cl)c(C(F)(F)F)c1)Nc1ccc2ncsc2c1,225 to 228
18,O=C(OCC1CCC1)c1ncn2c1[C@@H]1CCCN1C(=O)c1c(Cl)cccc1-2,204 to 205
19,COc1cc(N)c(Cl)cc1C(=O)CCC1CCNCC1,138 to 140
20,COCCOCc1c(CN(C)CC(O)c2cccc(N)c2)sc2c(=O)c(C(=O)NCc3ccc(Cl)cc3)cn(C)c12 (centres undefined),128 to 131
21,CON(C)C(=O)Cc1ccc([N+](=O)[O-])cc1,75 to 75.5
22,CC1(C)Oc2ccc(C#N)cc2[C@@H](NC2=C(C=O)C(=O)CC2)[C@@H]1O (relative stereo),255 to 258
23,CCOP(=S)(CNSCNC(=O)ON=C(C)SC)OCC,72 to 73
24,COC(=O)c1ccc2c(=O)[nH]c(=O)n(CCCCN3CCC(OC(c4ccccc4)c4ccccc4)CC3)c2c1,192 to 194

row,SMILES,melting point [°C]
1,CC(=O)Nc1nc2c(Oc3cc(-c4ccc(C(F)(F)F)cc4)ncn3)cccc2s1,219 to 220
2,CCOC(=O)/C(=N\OCc1c(Cl)cccc1Cl)c1csc(N)n1,171 to 172
3,CS(=O)(=O)c1ccc(-c2cnn(-c3ccc(C(F)(F)F)cc3)c(=O)c2-c2ccc(F)cc2)cc1,171 to 173
4,O=S(=O)(NCCCN1CCOCC1)C(F)(F)F,95 to 97
5,CC(=O)c1ccc(S(=O)(=O)NCC(=O)O)cc1,213 to 215
6,O=C(O)C(=O)CC(=O)c1cccn1CCc1ccccc1,168 to 170
7,CCN(CC)C(=O)n1cc(C=O)c(S(=O)(=O)c2cccc(Cl)c2C)n1,95 to 97
8,CCc1nc2c(C)cc(C)nc2n1Cc1ccc(C(=C(Br)C(=O)O)c2ccccc2)cc1,125 to 129
9,N#CCOc1coc2ccccc2c1=O,145 to 146
10,O=C(C(=NO)c1ccc(F)cc1)c1ccnc(F)c1,166
11,CCc1nc2cc(S(C)(=O)=O)c(Cl)cc2n1-c1ccc(CCNC(=O)NS(=O)(=O)c2ccc(C)cc2)cc1,105 to 118
12,COc1cc(OCc2ccccn2)ccc1/C=C/c1cc(/C=C/c2ccc3ccn(Cc4ccccc4)c3c2)n[nH]1,89 to 93
13,Cn1ccc(CNC(=O)c2ccnc(N3CCN(Cc4ccc(F)cc4)C3=O)c2)n1,79 to 81
14,Cc1cccc(N=c2scc(-c3ccc(Cl)c(S(=O)(=O)N(C)C)c3)n2C)c1C,226
15,CN(CC(=O)O)C(=O)CCc1nc2c(F)c(F)cc(F)c2s1,138 to 140
16,CCOC(=O)CNC(=O)N1CS(=O)c2c1cc(C(F)(F)F)cc2[N+](=O)[O-] (centres undefined),150
17,CC(CCCO)C1CC=C2C3=C(CCC21C)C1(C)CCC(O)C(C)(C)C1CC3 (centres undefined),203 to 208
18,CCCCOCCCn1c(CCCC)nc2c(N)nc3cccnc3c21,101 to 102
19,CC(C)n1nc(-c2nc(C#Cc3cncn3C)c(N)nc2-c2ccccc2)ccc1=O,> 250
20,C[C@@H]1N=C(c2ccccc2)c2cc(I)ccc2N(C)C1=O,115
21,NCCN1CCC(Nc2nc3ccccc3n2Cc2cccs2)CC1,137
22,COC(=O)C(=NO)c1nc2c(C)c(Cl)ccc2oc1=O,190 to 191
23,CCOC(=O)C1=C[C@@H](OC(CC)CC)[C@H](NC(C)=O)[C@H](O)C1,129 to 131
24,Cc1cccc(Cl)c1C(=O)N[C@@H](Cc1ccc(-c2cn(C)c(=O)n(C)c2=O)cc1)C(=O)O,234 to 236

# Second part, the compound after the results:
row,melting point [°C],SMILES
1,189 to 190,Cc1cc(C)c2nc(C3CC3)n(Cc3ccc(C(CC(=O)O)c4ccccc4)cc3)c2n1 (centres undefined)
2,240 to 243,CCC1(CC(=O)O)OCC(=O)c2c1[nH]c1cccc(Cl)c21 (centres undefined)
3,232 to 234,Cc1nc2c3c(ccn2c1C)C(=O)C(O)C(c1ccccc1)N3 (centres undefined)
4,154 to 156,CCCCCCCCCCCCCCCCNC(=O)c1cc(O)cc(O)c1
5,221 to 223,O=C1NCCc2[nH]c3c(F)ccc(F)c3c21
6,120 to 123,C=CCn1nc(-c2cc(C(C)(C)C)c(O)c(C(C)(C)C)c2)c2cccnc21
7,117 to 118,CCOC(=O)c1cn(C)nc1OCc1ccc(OCc2nc(-c3ccco3)oc2C)c(OC)c1
8,121 to 122,Cc1ccc(Cl)cc1NC(=S)n1c(C)cc2ccccc21
9,246 to 248,CCC(=O)NNc1ccnc2c(NC(=O)c3c(Cl)cccc3Cl)cccc12
10,87 to 88,CCC(O)CN1CCC(c2noc3cc(F)ccc23)CC1 (centres undefined)
11,142,FC(F)(F)c1cc(C(F)(F)F)c2nc(N3CCN(c4ncccc4C(F)(F)F)CC3)[nH]c2c1
12,88 to 90,O=CCCNC(=O)c1ccc[nH]1
13,197 to 198,Cc1nc(N2CCN(Cc3ccc(OC(F)(F)F)cc3)C2=O)sc1C(=O)NCc1ccccc1
14,63 to 64,CC1OC(C)(C)c2cc(-c3ccc(C#N)n3C)ccc2N1C(=O)OCC1c2ccccc2-c2ccccc21 (centres undefined)
15,251 to 253,CNC1(C)CN(c2cc3c(cc2F)c(=O)c(C(=O)O)cn3C(C)(C)C)C1
16,205 to 210,O=C(NO)c1ccc(OC/C=C/COc2ccc(C(=O)NO)cc2)cc1
17,82 to 83,CCOC(=O)c1cnc(S(=O)Cc2ccccc2)n1-c1c(CC)cccc1CC (centres undefined)
18,81 to 82,COC(=O)c1oc(C(C)(C)C)cc1NC(=O)Nc1ccc(F)cc1
19,219 to 221,CN1C(=O)C2(COc3cc4c(cc32)OCCO4)c2c(Oc3ccccn3)cccc21 (centres undefined)
20,75 to 77,CCCCCOC(=O)CNC(=O)c1nc(Cl)c2ccc(OC(C)C)cc2c1O
21,264,CCOC(=O)c1c(Cl)nc2cc(F)c(F)cc2c1CCl
22,178 to 180,CCN(CC)c1ccc(-c2ccc3c(c2)C=C(C(=O)Nc2ccc(CN(C)C4CCOCC4)cc2)CCN3C)cc1
23,180 to 182,CCn1c(=O)c2c(nc(/C=C/c3ccc(OCC(=O)c4ccccc4)c(OC)c3)n2C)n(CC)c1=O
24,97 to 102,CC(C)C[C@H](NC(=O)OCc1ccccc1)C(=O)N[C@@H](Cc1ccccc1)C(=O)CS(C)=O (some centres undefined)
25,203 to 206,Cc1c(N2CC[C@@H](C3(NC(=O)OC(C)(C)C)CC3)C2)cc(O)c2c(=O)c(C(=O)O)cn([C@@H]3C[C@@H]3F)c12
26,215,CC(=O)OC1CSC(Oc2ccc(-c3cncnc3)nc2)C(OC(C)=O)C1OC(C)=O (centres undefined)

row,melting point [°C],SMILES
1,93 to 95,CCOC(=NC(=O)Nc1ccc(OC(F)(F)F)cc1)c1ccccc1F
2,> 270,O=S(=O)(O)c1ccc(NCc2ccccc2F)cc1
3,136 to 138,CS(=O)(=O)c1ccc(Oc2cc(OC3CCOCC3)c3[nH]c(C4=NCC(CC(N)=O)S4)cc3c2)cn1 (centres undefined)
4,71 to 73,O=C(Nc1cc(F)c(Cl)nc1C1CCN(CC=Cc2ccc(Cl)cc2)CC1)c1ccnc(Cl)c1
5,> 250,Nc1cc2c(=O)cc(C(=O)O)[nH]c2ccc1=O
6,90 to 92,CC(C)(C)OC(=O)CN1CC(c2ccco2)SCC(N)C1=O (centres undefined)
7,69 to 71,Cc1ccc(OCc2ccccc2)c(C(CCO)c2ccccc2)c1 (centres undefined)
8,223 to 227,CN1C(=O)CC(c2ccccc2)C1C(O)c1ccc(C(=O)Nc2ccccc2)s1 (centres undefined)
9,139 to 143,O=C(O)C1=Cc2cc(SC(F)(F)F)ccc2OC1C(F)(F)F (centres undefined)
10,173 to 174,CC(O)c1cc2cc(O)c(Cl)c(Cl)c2s1 (centres undefined)
11,161,Clc1nccc(N2CCC3(CC2)OCc2ccccc23)c1Cl
12,146 to 148,CC(C)c1ccc(-n2nc(Cl)cc2-c2ccc(S(C)(=O)=O)cc2)cc1
13,91,CC(C(C=Cc1ccc(Cl)cc1)OCc1ccc(Cl)cc1)n1cncn1 (centres undefined)
14,181 to 184,CC(CCCC(O)(C(F)(F)F)C(F)(F)F)C1CCC2C3C=CC4=CC(=O)C5OC5C4(C)C3CCC12C (centres undefined)
15,133 to 135,CSc1ccc(Nc2nc(=O)cc(N)n2-c2ccccc2)cc1
16,102 to 103,CCOC(=O)C(=CNc1ncnn1C)C(=O)c1cc(F)c(Cl)nc1Cl
17,135 to 140,COC(=O)c1c(-c2ccco2)ccnc1C(=O)c1nc(OC)cc(OC)n1
18,151,Nc1ccc(C(=O)Nc2ccc(-c3ccc(C(=O)N4CCN5CCC4CC5)o3)cc2)cc1
19,67,CCOC(=O)C(=CC=C(C#N)c1ccccc1)N(C)C
20,112,COC(=O)C(=O)c1cc[nH]c1
21,145 to 147,COc1ccc2[nH]c(/C=C/C=O)cc2c1
22,145 to 147,CC(C)(OCc1nn(Cc2ccccc2)c2ccc(Cl)cc12)C(=O)O
23,204 to 206,COC1(OC)C=Cc2cc(Cc3cnc(N)nc3N)cc(OCC3CC3)c2O1
24,141 to 143,FC(F)(F)Oc1ccc(Nc2cc(N3CCCC3)cc(-c3ccccc3)n2)cc1
25,53 to 55,CCCCCCCCCOc1ccc2c(c1)C(CCNC(=O)CCC)CC2 (centres undefined)
